{
  "source": "patent US7179821B2",
  "about": "“Method of treating of demyelinating diseases or conditions” (Aventis Pharmaceuticals Inc., priority 2001, dated 2007)",
  "key": {"mouse pMCAO stroke model": {"tested_on": "mouse pMCAO stroke model", "experiment": "Mouse pMCAO stroke model, infarct volume", "type": "in vivo", "details": "−60 min (one hour prior to occlusion), infarct volume 24 hours later, vs vehicle treated mice", "procedure": "Methods: The experimental procedure was based on the method of Bachauβ et al (1992). Male CD-1 mice weighing 35–40 g were anaesthetized with chloral hydrate (400 mg/kg). Under an operating microscope, a 3 mm vertical skin incision was made 2 mm behind the right orbit. The temporal muscle was deflected and a small craniotomy carried out to expose the dura. The dura was incised and deflected and the distal part of the right […] exposed. The artery was occluded upstream to the main bifurcation by bipolar electroagulation with fine forceps. Infarct volume was measured 24 hours later using 2% triphenyltetrazolium chloride solution. In this experimental paradigm, HP 184 was orally administered to non-fasted mice (10 per group) one hour prior to occlusion. Infarct volume reduction was based on comparison to 1% acetic acid, vehicle, treated mice."}, "[1]": {"tested_on": "photothrombotic cerebral lesion", "experiment": "Edema after photothrombotic cerebral lesion in the rat", "type": "in vivo", "procedure": "Method: Male Sprague Dawley rats (180–200 g bw) were anaesthetized with chloral hydrate (400 mg/kg ip) and placed in a stereotaxic apparatus. The skin was opened to reveal the skull and a cold light (Bioblock 150 W) was placed in contact with the right side of the skull forward of lambda. Bengal rose dye (10 mg/kg iv in saline) was administered intravenously and illumination of the skull started immediately and continued for 5 minutes. The skin was then sutured closed over the skull and the animal returned to its cage. Twenty-four hours after the photothrombotic lesion animals received HP184 made up in 1% tween in water by intravenous route at 0, 10 or 20 mg/kg body weight in a volume of 5 ml/kg. One hour later, animals were killed by decapitation and their brains removed (see appendix for protocol). Core samples were taken at the site of the lesion, and contralateral to the lesion, using a 6 mm diameter cork borer. Water content was determined by wet weight of tissue/dry weight of tissue and edema expressed as % excess water on lesioned sample compared with sample from contralateral hemisphere for each rat."}, "[2]": {"tested_on": "transient focal cerebral ischemia", "experiment": "Transient focal cerebral ischemia in rats, lesion size", "type": "in vivo, rat", "details": "10 mg/kg iv 1 hour after ischemia onset", "procedure": "Methods: Male Sprague-Dawley rats [Iffa Credo, France] weighing about 220–240 g were anaesthetized with halothane (1.4%) in a nitrous oxide-oxygen mixture (70:30). Both common carotid arteries (CCAs) were isolated. The left middle cerebral artery (MCA) exposed via a temporal craniotomy was occluded with a microclip, and simultaneously the CCAs were occluded for 1 hour. Both body and cerebral temperatures were kept at normothermia. Following surgery animals were returned to their home cages in a room warmed at 24–26° C.\nHP184, dissolved in 1% tween (in injectable sterile water), was administered at 10 and 20 mg/kg iv 1 hour after ischemia onset, and control rats received the vehicle according to the same protocol. At 24 h post-ischemia, a neurological function using a 9 points grading scale was performed blindly.\nThereafter rats were killed and brains were removed. Fresh sections were cut with a brain matrix and stained with triphenyl tetrazolium chloride 2% at 37° C. for 5 min. The sections were then stored in 10% formalin at 4° C. for 24 h. Areas of infarction were measured with an image analyzer (Leica Q500)."}, "[3]": {"tested_on": "RuR-induced flaccid paralysis", "experiment": "Antagonism of ruthenium red (RuR)-induced flaccid paralysis, flagpole test", "type": "in vivo, mouse", "procedure": "Method and Results: Groups of 4–5 mice (CD-1; Charles River; 25–35 grams) were separately but simultaneously injected ip with ruthenium red and vehicle (1% glacial acetic acid), ruthenium red and 4-AP, or ruthenium red and HP 184. The compound known as “8183” was also tested in this paradigm. Starting at 15 minutes after injections, mice were placed near a “flagpole” apparatus and their ability to support their own body weight (ie, to hold on to the flagpole and not fall) was recorded. Results were recorded as the number of mice that could support their own body weight versus the total number of mice tested. All experiments were performed between 2PM and 4:30PM."}, "[4]": {"tested_on": "spinal cord crush-induced motor impairments", "experiment": "Acute treatment after moderate spinal cord crush (1.4 mm), Open Field Walking Scale", "type": "in vivo, rat"}, "[5]": {"tested_on": "demyelinated area at the moderate compression injury site", "experiment": "Histological study of spinal cords, demyelinated area (luxol fast blue)", "type": "in vivo, rat", "procedure": "A study to test whether the treatment with HP184 affected the amount of myelin in rats with moderate long term spinal cord crush injury when administered long after spinal cord injury.\nThe spinal cords from rats described above in the assessment were used for this study.\n(50–60 mg/kg body weight, i.p.) and perfused transcardically—first with 100 mL 0.05M phosphate buffed saline (PBS) containing 0.1% heparin, followed by 300–500 mL of 4% paraformaldehyde (PFA). Segments T9 to L1 of the spinal cords were taken out, then cryo-protected in 30% sucrose solution and frozen at −70° C. in 10.24% polyvinyl alcohol and 4.26% polyethylene glycol.\nA segment of each cord including the lesion site plus 10 mm rostral and caudal to the lesion site was embedded in Tissue Tek medium. Serial sections were cut longitudinally at 20 μm intervals on a cryostat. Every third section was stained with luxol fast blue for myelin. The evaluation was performed by observers blinded as to treatment, on coded slides. Sections were examined under a light microscope for the extent of demyelination (the area without luxol fast blue staining).\nFor determinations of the maximal demyelinated area of the cord, the whole section was digitized on photographs using a Zeiss microscope. The extent of demyelination was measured at the lesion center using a computerized Bioquant BQ-TCW98 image analysis progrem by an investigator who was blind to treatment group.\nStatistical analysis was performed on a Macintosh computer using GB-Stat ppc 6.5.2. The histological results were analyzed by the Kruskal-Wallis nonparametric analysis of variance (ANOVA). Post hoc comparisons were made using Mann-Whitney U tests."}, "NO production": {"tested_on": "NO production", "experiment": "LPS-induced NO production in mice, plasma nitrate by Griess assay", "type": "in vivo, mouse", "details": "30 mg/kg ip 30 minutes prior to LPS 3 mg/kg ip, plasma 5 hours after LPS", "procedure": "Mice were injected with 30 mg/kg HP 184 (ip) 30 minutes prior to LPS (3 mg/kg, ip). Mice were sacrificed 5 hours after LPS injection, and plasma collected. Nitrate levels were determined by the Griess assay. Groups were composed of 9–10 mice each."}, "[6]": {"details": "micromolar brain concentrations one hour after ip administration of 30 mg/kg in rats; cited from earlier work"}, "[7]": {"details": "10 mg/kg ip with RuR 30 mg/kg ip, 15 min"}, "[8]": {"details": "10 mg/kg ip with RuR 30 mg/kg ip, 30 min"}, "[9]": {"details": "10 mg/kg ip with RuR 30 mg/kg ip, 45 min"}, "[10]": {"details": "30 mg/kg ip with RuR 30 mg/kg ip, 15 min"}, "[11]": {"details": "30 mg/kg ip with RuR 30 mg/kg ip, 30 min"}, "[12]": {"details": "30 mg/kg ip with RuR 30 mg/kg ip, 45 min"}},
  "note": "Where “and” joins values, the source holds several entries; their conditions need not be identical. Equal values may be shown once.",
  "data": [
    {"smiles": "CCCN(c1ccncc1F)n1cc(C)c2ccccc21", "note": "[HP184, N-(3-fluoro-4-pyridinyl)-N-propyl-3-methyl-1H-indole-1-amine]", "values": [
      {"measurement": "% infarct volume reduction mean sem", "setting": "mouse pMCAO stroke model; 1 mg/kg po", "value": "21 ± 3", "unit": "%"},
      {"measurement": "% infarct volume reduction mean sem", "setting": "mouse pMCAO stroke model; 10 mg/kg po", "value": "40 ± 2.5 % and 32 ± 11 %"},
      {"measurement": "edema (% excess water) at 25 h post lesion", "setting": "[1]; 10 mg/kg iv at 24 h post lesion", "value": "3.61 ± 0.23", "unit": "ns % excess water"},
      {"measurement": "edema (% excess water) at 25 h post lesion", "setting": "[1]; 20 mg/kg iv at 24 h post lesion", "value": "3.20 ± 0.27", "unit": "% excess water"},
      {"measurement": "reduction of the edema in the right cerebral cortex", "setting": "[1]; 20 mg/kg iv, one hour after administration, 25 hours after lesion", "value": 22, "unit": "%"},
      {"measurement": "reduction of lesion in the cortex", "setting": "[2]; cortex", "value": "−45", "unit": "%"},
      {"measurement": "reduction of brain lesions", "setting": "[2]; measured 24 h post-ischemia", "value": 41, "unit": "%"},
      {"measurement": "% of mice that could support their own body weight", "setting": "[3]; [7]", "value": "(93.3%)"},
      {"measurement": "number of mice that could support their own body weight versus total tested", "setting": "[3]; [7]", "value": "14 out of 15"},
      {"measurement": "% of mice that could support their own body weight", "setting": "[3]; [8]", "value": "(80%)"},
      {"measurement": "number of mice that could support their own body weight versus total tested", "setting": "[3]; [8]", "value": "12 out of 15"},
      {"measurement": "% of mice that could support their own body weight", "setting": "[3]; [9]", "value": "(73.3%)"},
      {"measurement": "number of mice that could support their own body weight versus total tested", "setting": "[3]; [9]", "value": "11 out of 15"},
      {"measurement": "% of mice that could support their own body weight", "setting": "[3]; [10]", "value": "(100%)"},
      {"measurement": "number of mice that could support their own body weight versus total tested", "setting": "[3]; [10]", "value": "15 out of 15"},
      {"measurement": "% of mice that could support their own body weight", "setting": "[3]; [11]", "value": "(100%)"},
      {"measurement": "number of mice that could support their own body weight versus total tested", "setting": "[3]; [11]", "value": "15 out of 15"},
      {"measurement": "% of mice that could support their own body weight", "setting": "[3]; [12]", "value": "(100%)"},
      {"measurement": "number of mice that could support their own body weight versus total tested", "setting": "[3]; [12]", "value": "15 out of 15"},
      {"measurement": "antagonism of the flaccid paralysis induced by ip RuR (conclusion)", "setting": "[3]; ip, doses of Table 3", "value": "can antagonize the flaccid paralysis"},
      {"measurement": "rate and extent of improvement of OFT score", "setting": "[4]; 20 and 5 mg/kg ip within 15 minutes of crush, repeated days 2 and 3, FIG. 2", "value": "significantly different from vehicle treated rats"},
      {"measurement": "rate and extent of improvement of OFT score", "setting": "[4]; po 5–10 minutes prior to crush, then once a day days 2 and 3, vs vehicle treated group, FIG. 3", "value": "improved for all doses"},
      {"measurement": "extent of demyelination, comparison of the groups", "setting": "[5]; 3 mg/kg po", "value": "showed the least demyelination"},
      {"measurement": "myelin at the site of injury", "setting": "[5]; 3 mg/kg/day by oral gavage from 35 to 41 days after moderate crush injury", "value": "more myelin at the site of injury"},
      {"measurement": "myelinated / demyelinated area at the crush center, FIG. 7", "setting": "[5]; HP184 0.3, 1 or 3 mg/kg po or 4-AP 0.6 mg/kg ip, days 35–42 after moderate crush", "value": "significantly greater myelinated area than that of saline controls"},
      {"measurement": "NO production (plasma nitrate), FIG. 9", "setting": "NO production", "value": "inhibits NO production"},
      {"measurement": "tolerability", "setting": "[6]", "value": "very well-tolerated"}
    ]}
  ]
}
